Experimental data reported in patent US8580832B2, “Substituted phenoxy aminothiazolones as estrogen related receptor-α modulators” (Janssen Pharmaceutica N.V., priority 2007, dated 2013).

Molecular target: T1, ERR1 (also known as ERR-α or ERR-1) (Homo sapiens, UniProt P11474)
T1 construct: the ^6His-tagged-ERR1 LBD
T1 sequence (P11474 193-421 limits assumed): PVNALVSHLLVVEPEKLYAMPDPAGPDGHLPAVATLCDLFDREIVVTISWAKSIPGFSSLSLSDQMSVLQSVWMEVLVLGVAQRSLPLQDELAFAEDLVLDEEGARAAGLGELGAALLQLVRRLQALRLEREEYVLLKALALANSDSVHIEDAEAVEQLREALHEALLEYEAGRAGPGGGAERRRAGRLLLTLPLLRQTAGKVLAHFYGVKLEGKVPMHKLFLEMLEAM
Assay: TR-FRET assay: disruption of co-activator peptide binding to ERR1 LBD
Format: biochemical
Details: 6His-tagged ERR1 LBD 6 nM, GST-SRC-2 peptide 6 nM, 25° C., 4-18 hours; average of 3 independent experiments
Method: Time-Resolved Fluorescence Resonance Energy Transfer (TR-FRET) experiments were performed to examine the functional response of ERR1 (also known as ERR-α or ERR-1) ligands. The TR-FRET assay described herein relied on the conformation of ERR1 for binding to a co-activator peptide: when a test compound binds to ERR1 and alters its conformation, it can disrupt the binding of the co-activator peptide. The components of this homogeneous secondary assay included: the ^6His-tagged-ERR1 LBD, a GST-labeled-hSRC2 co-activator polypeptide and a fluorescent donor/acceptor pair from CIS bio international htrf/bioassays (Bedford, Mass.) using both an α-GST Europium Cryptate (Eu) label and an α^6His-XL665 (allophycocyanin) fluorophore.
For TR-FRET measurements, the reaction was buffered in 25 mM Tris pH 8, 2.5 mM Hepes, 20 mM KCl, 1 mM DTT, and 0.05 mg/mL BSA (-lipids). […] Reactions were allowed to reach equilibrium at 25° C. for 4-18 hours before collecting data on the Analyst from LJL Biosystems (Molecular Devices Sunnyvale, Calif.). […] Dose response curves were fitted using a hyperbolic equation and the data reported is the average of 3 independent experiments.

| EC50 [nM] | SMILES |
| --- | --- |
| 24 | COc1cc(/C=C2\SC(N3CCCC(O)C3)=NC2=O)ccc1Oc1ccc(C(F)(F)F)cc1C(F)(F)F (centres unmarked) [Example 58, 5-[4-(2,4-Bis-trifluoromethyl-phenoxy)-3-methoxy-benzylidene]-2-(3-hydroxy-piperidin-1-yl)-thiazol-4-one] |
| 140 | COc1cc(/C=C2\SC(N3CCNC(=O)C3)=NC2=O)ccc1Oc1ccc(C(F)(F)F)cc1C(F)(F)F [Example 59, 4-{5-[4-(2,4-Bis-trifluoromethyl-phenoxy)-3-methoxy-benzylidene]-4-oxo-4,5-dihydro-thiazol-2-yl}-piperazin-2-one] |
| 4 | COc1cc(/C=C2\SC(NCCN3CCCC3=O)=NC2=O)ccc1Oc1ccc(Cl)cc1C(F)(F)F [Example 60, 5-[4-(4-Chloro-2-trifluoromethyl-phenoxy)-3-methoxy-benzylidene]-2-[2-(2-oxo-pyrrolidin-1-yl)-ethylamino]-thiazol-4-one] |
| 1 | COc1cc(/C=C2\SC(N3CCNC(=O)C3)=NC2=O)ccc1Oc1ccc(Cl)cc1C(F)(F)F [Example 61, 4-{5-[4-(4-Chloro-2-trifluoromethyl-phenoxy)-3-methoxy-benzylidene]-4-oxo-4,5-dihydro-thiazol-2-yl}-piperazin-2-one] |
| 3 | COc1cc(/C=C2\SC(N(C)CC(O)CO)=NC2=O)ccc1Oc1ccc(Cl)cc1C(F)(F)F (centres unmarked) [Example 62, 5-[4-(4-Chloro-2-trifluoromethyl-phenoxy)-3-methoxy-benzylidene]-2-[(2,3-dihydroxy-propyl)-methyl-amino]-thiazol-4-one] |
| 75 | COc1cc(/C=C2\SC(NCCN3CCCC3=O)=NC2=O)ccc1Oc1ccc(C#N)cc1Cl [Example 63, 3-Chloro-4-(2-methoxy-4-{4-oxo-2-[2-(2-oxo-pyrrolidin-1-yl)-ethylamino]-4H-thiazol-5-ylidenemethyl}-phenoxy)-benzonitrile] |
| 44 | COc1cc(/C=C2\SC(N3CCNC(=O)C3)=NC2=O)ccc1Oc1ccc(C#N)cc1Cl [Example 64, 3-Chloro-4-{2-methoxy-4-[4-oxo-2-(3-oxo-piperazin-1-yl)-4H-thiazol-5-ylidenemethyl]-phenoxy}-benzonitrile] |
| 89 | COc1cc(/C=C2\SC(N(C)CC(O)CO)=NC2=O)ccc1Oc1ccc(C#N)cc1Cl (centres unmarked) [Example 65, 3-Chloro-4-(4-{2-[(2,3-dihydroxy-propyl)-methyl-amino]-4-oxo-4H-thiazol-5-ylidenemethyl}-2-methoxy-phenoxy)-benzonitrile] |
| 4 | O=C1CN(C2=NC(=O)/C(=C/c3ccc(Oc4ccc(Cl)cc4C(F)(F)F)c(F)c3)S2)CCN1 [Example 66, 4-{5-[4-(4-Chloro-2-trifluoromethyl-phenoxy)-3-fluoro-benzylidene]-4-oxo-4,5-dihydro-thiazol-2-yl}-piperazin-2-one] |
| 3 | O=C1N=C(NCCCN2CCCC2=O)S/C1=C\c1ccc(Oc2ccc(Cl)cc2C(F)(F)F)c(F)c1 [Example 67, 5-[4-(4-Chloro-2-trifluoromethyl-phenoxy)-3-fluoro-benzylidene]-2-[3-(2-oxo-pyrrolidin-1-yl)-propylamino]-thiazol-4-one] |
| 19 | COC(=O)[C@H](CO)NC1=NC(=O)/C(=C/c2ccc(Oc3ccc(C#N)cc3C(F)(F)F)c(OC)c2)S1 [Example 68, 2-{5-[4-(4-Cyano-2-trifluoromethyl-phenoxy)-3-methoxy-benzylidene]-4-oxo-4,5-dihydro-thiazol-2-ylamino}-3-hydroxy-propionic acid methyl ester] |
| 17 | COc1cc(/C=C2\SC(NCCOCCO)=NC2=O)ccc1Oc1ccc(C#N)cc1C(F)(F)F [Example 69, 4-(4-{2-[2-(2-Hydroxy-ethoxy)-ethylamino]-4-oxo-4H-thiazol-5-ylidenemethyl}-2-methoxy-phenoxy)-3-trifluoromethyl-benzonitrile] |
| 24 | COc1cc(/C=C2\SC(NCCn3ccnc3)=NC2=O)ccc1Oc1ccc(C#N)cc1C(F)(F)F [Example 70, 4-{4-[2-(2-Imidazol-1-yl-ethylamino)-4-oxo-4H-thiazol-5-ylidenemethyl]-2-methoxy-phenoxy}-3-trifluoromethyl-benzonitrile] |
| 13 | COc1cc(/C=C2\SC(NCCNC(C)=O)=NC2=O)ccc1Oc1ccc(C#N)cc1C(F)(F)F [Example 71, N-(2-{5-[4-(4-Cyano-2-trifluoromethyl-phenoxy)-3-methoxy-benzylidene]-4-oxo-4,5-dihydro-thiazol-2-ylamino}-ethyl)-acetamide] |
| 16 | COc1cc(/C=C2\SC(NCCn3cncn3)=NC2=O)ccc1Oc1ccc(C#N)cc1C(F)(F)F [Example 72, 4-{2-Methoxy-4-[4-oxo-2-(2-[1,2,4]triazol-1-yl-ethylamino)-4H-thiazol-5-ylidenemethyl]-phenoxy}-3-trifluoromethyl-benzonitrile] |
| 13 | COc1cc(/C=C2\SC(NCCC(=O)N3CCOCC3)=NC2=O)ccc1Oc1ccc(C#N)cc1C(F)(F)F [Example 73, 4-{2-Methoxy-4-[2-(3-morpholin-4-yl-3-oxo-propylamino)-4-oxo-4H-thiazol-5-ylidenemethyl]-phenoxy}-3-trifluoromethyl-benzonitrile] |
| 17 | COc1cc(/C=C2\SC(NCCNC(N)=O)=NC2=O)ccc1Oc1ccc(C#N)cc1C(F)(F)F [Example 74, (2-{5-[4-(4-Cyano-2-trifluoromethyl-phenoxy)-3-methoxy-benzylidene]-4-oxo-4,5-dihydro-thiazol-2-ylamino}-ethyl)-urea] |
| 32 | COc1cc(/C=C2\SC(N(C)OC)=NC2=O)ccc1Oc1ccc(C#N)cc1C(F)(F)F [Example 75, 4-{2-Methoxy-4-[2-(methoxy-methyl-amino)-4-oxo-4H-thiazol-5-ylidenemethyl]-phenoxy}-3-trifluoromethyl-benzonitrile] |
| 16 | COc1cc(/C=C2\SC(NCC(=O)O)=NC2=O)ccc1Oc1ccc(C#N)cc1C(F)(F)F [Example 76, {5-[4-(4-Cyano-2-trifluoromethyl-phenoxy)-3-methoxy-benzylidene]-4-oxo-4,5-dihydro-thiazol-2-ylamino}-acetic acid] |
| 16 | CNC1=NC(=O)/C(=C/c2ccc(Oc3ccc(C#N)cc3C(F)(F)F)c(OC)c2)S1 [Example 77, 4-[2-Methoxy-4-(2-methylamino-4-oxo-4H-thiazol-5-ylidenemethyl)-phenoxy]-3-trifluoromethyl-benzonitrile] |
| 14 | COc1cc(/C=C2\SC(N3CCC(C(N)=O)CC3)=NC2=O)ccc1Oc1ccc(C#N)cc1C(F)(F)F [Example 78, 1-{5-[4-(4-Cyano-2-trifluoromethyl-phenoxy)-3-methoxy-benzylidene]-4-oxo-4,5-dihydro-thiazol-2-yl}-piperidine-4-carboxylic acid amide] |
| 25 | COC(=O)C1CCN(C2=NC(=O)/C(=C/c3ccc(Oc4ccc(C#N)cc4C(F)(F)F)c(OC)c3)S2)CC1 [Example 79, 1-{5-[4-(4-Cyano-2-trifluoromethyl-phenoxy)-3-methoxy-benzylidene]-4-oxo-4,5-dihydro-thiazol-2-yl}-piperidine-4-carboxylic acid methyl ester] |
| 35 | COc1cc(/C=C2\SC(NCC3CNCCO3)=NC2=O)ccc1Oc1ccc(C#N)cc1C(F)(F)F (centres unmarked) [Example 80, 4-(2-Methoxy-4-{2-[(morpholin-2-ylmethyl)-amino]-4-oxo-4H-thiazol-5-ylidenemethyl}-phenoxy)-3-trifluoromethyl-benzonitrile] |
